Values of other authors as cited in US20050201989A1, “Compositions and methods for ex vivo preservation of blood vessels for vascular grafts using inhibitors of tumor necrosis factor-alpha” (St. Camillus Medical, Inc., priority 2004, published 2005).

Test system: endothelial cells
Settings: general knowledge statement, no test described

Structure (SMILES): CCCC(=O)Nc1ncnc2c1ncn2[C@@H]1O[C@@H]2COP(=O)(O)O[C@H]2[C@H]1OC(=O)CCC [db cAMP, dibutyryl adenosine 3′,5′-cyclic monophosphate]
- db cAMP concentration that becomes toxic to endothelial cells: higher than 4 mM
